Results taken from patent US20250127904A1, “SIGLEC LIGANDS, CONJUGATES, AND METHODS OF USE THEREOF” (Osprey Biopharmaceuticals, Inc., priority 2023, published 2025).
pKd: −log10 of the molar value.

Tests used:
[1] = target: T1, biotinylated human siglec-2/CD22 protein-His-Avitag (Homo sapiens, UniProt P20273); assay: SPR binding to human siglec-2/CD22; settings: steady-state analysis, read-out: Human CD22 affinity
T1 construct: purchased Acro Biosystems SI2-H82E3
T1 sequence (P20273 20-847): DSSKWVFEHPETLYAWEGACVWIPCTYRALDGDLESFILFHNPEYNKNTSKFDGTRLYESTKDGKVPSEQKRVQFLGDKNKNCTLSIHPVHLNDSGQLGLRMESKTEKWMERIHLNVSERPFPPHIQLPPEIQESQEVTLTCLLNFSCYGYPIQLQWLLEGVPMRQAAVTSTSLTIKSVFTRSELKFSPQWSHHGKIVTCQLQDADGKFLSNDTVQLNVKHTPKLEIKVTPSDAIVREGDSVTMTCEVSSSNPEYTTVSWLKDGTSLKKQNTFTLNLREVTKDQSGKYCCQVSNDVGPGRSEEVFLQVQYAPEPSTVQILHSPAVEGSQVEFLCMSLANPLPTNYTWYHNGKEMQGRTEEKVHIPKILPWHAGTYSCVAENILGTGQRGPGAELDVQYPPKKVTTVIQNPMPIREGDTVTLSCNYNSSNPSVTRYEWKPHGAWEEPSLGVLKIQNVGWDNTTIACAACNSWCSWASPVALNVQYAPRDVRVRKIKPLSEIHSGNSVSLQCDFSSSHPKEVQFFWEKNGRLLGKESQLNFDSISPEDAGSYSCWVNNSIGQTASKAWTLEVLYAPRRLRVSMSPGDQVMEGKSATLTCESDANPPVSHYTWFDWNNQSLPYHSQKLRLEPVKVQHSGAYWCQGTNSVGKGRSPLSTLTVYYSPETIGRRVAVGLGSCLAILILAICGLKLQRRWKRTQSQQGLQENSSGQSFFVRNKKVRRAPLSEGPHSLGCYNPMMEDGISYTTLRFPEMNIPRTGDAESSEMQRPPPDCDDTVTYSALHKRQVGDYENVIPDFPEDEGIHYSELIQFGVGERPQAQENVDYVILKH
Summary of the method: (§1)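 Desialylated (SialoExo, 4 h, 37 °C) biotinylated CD22 was captured on a streptavidin chip at about 3500 RU, referenced against biotinylated FGFR2-Fc. Compounds at 50 μM to 97.6 nM in HEPES pH 7.5, 150 mM NaCl, 0.05% Tween-20, 1% DMSO: 90 s association, 120 s dissociation; KD by steady-state fit.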

[2] = target: T2, biotinylated mouse siglec-2-Fc-Avi (Mus musculus, UniProt P35329); assay: SPR binding to mouse siglec-2/CD22; settings: steady-state analysis, read-out: Mouse CD22 affinity
T2 construct: made in house
T2 sequence (P35329 22-708 limits assumed): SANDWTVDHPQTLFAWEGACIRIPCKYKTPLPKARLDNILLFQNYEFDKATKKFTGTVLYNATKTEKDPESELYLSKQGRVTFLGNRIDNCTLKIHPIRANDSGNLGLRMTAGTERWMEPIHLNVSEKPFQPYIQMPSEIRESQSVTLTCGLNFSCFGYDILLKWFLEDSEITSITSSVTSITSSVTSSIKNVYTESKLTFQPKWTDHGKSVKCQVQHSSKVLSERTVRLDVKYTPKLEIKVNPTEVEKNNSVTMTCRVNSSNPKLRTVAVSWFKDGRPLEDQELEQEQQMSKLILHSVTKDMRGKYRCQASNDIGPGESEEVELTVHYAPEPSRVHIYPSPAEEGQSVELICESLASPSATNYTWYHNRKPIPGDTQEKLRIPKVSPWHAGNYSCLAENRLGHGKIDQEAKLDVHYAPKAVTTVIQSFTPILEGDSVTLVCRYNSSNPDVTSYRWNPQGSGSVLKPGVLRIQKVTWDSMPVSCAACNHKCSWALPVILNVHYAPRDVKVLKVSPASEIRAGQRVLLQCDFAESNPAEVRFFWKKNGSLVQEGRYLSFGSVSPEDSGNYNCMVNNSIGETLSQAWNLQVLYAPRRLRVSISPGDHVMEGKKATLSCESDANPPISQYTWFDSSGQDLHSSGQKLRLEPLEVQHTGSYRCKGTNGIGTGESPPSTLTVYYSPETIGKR
Summary of the method: as §1

[3] = target: recombinant cynomolgus siglec-2/CD22 His-tag (Macaca fascicularis, UniProt A0A2K5WCZ6); assay: SPR binding to cynomolgus siglec-2/CD22; settings: steady-state analysis, read-out: Cyno CD22 affinity
Method: The following proteins were used for CD22 ligand binding: biotinylated human siglec-2/CD22 protein-His-Avitag (Acro Biosystems, Cat #SI2-H82E3), biotinylated mouse siglec-2-Fc-Avi (in-house production), and recombinant cynomolgus siglec-2/CD22 His-tag (R&D systems, Cat #9864-SL-050). Prior to immobilization, CD22 proteins were treated with SialoExo (Genovis, Cat #G1-SM1-020) for 4 hours at 37° C. to remove native sialic acid residues.
Surface preparation for cyno CD22 protein consisted of amine coupling to Cytiva CM5 chip (Cytiva, Cat #BR100530) using the Cytiva amine coupling kit Type 2 (Cytiva, Cat #BR100633). Following the standard amine coupling protocols, EDC and NHS from the kit were mixed 1:1 and injected over flow cells 1 and 2. Cyno CD22 was then immobilized by injecting 10 μg/mL in Sodium Acetate, pH 5.5 onto flow cell (2) for 420 seconds at 10 uL/min, yielding approximately 2500 RU of captured protein. Any active carboxy groups were then capped with 1M Ethanolamine, pH 8.5 for 420 s on flow cells 1 and 2.
Binding experiments of siglec-ligand conjugated proteins or Siglec ligand compounds were performed on the surfaces prepared above in 10 mM HEPES, 150 mM NaCl, 0.05% Tween-20, pH 7.5, 1% DMSO as the running buffer. Compounds were serially diluted in running buffer from 50 μM to 97.6 nM and injected over both the reference and active flow cells for 90 seconds at 30 μL/min. The compounds were then allowed to dissociate from the surface for 120 seconds. No regeneration was required as the compounds completely dissociated from the surface after 30 seconds. Solvent correction was performed using 0.5, 1, 1.5, and 2% DMSO spike into running buffer without DMSO. Data was analyzed using steady-state analysis in Biacore Insight Evaluation Software, version 3.0.

[4] = tested on: C57BL/6 mice; assay: In vivo anti-drug antibody (ADA) titers in mice; set-up: species or system mouse; settings: 4 mg/kg subcutaneous, day 20
Method: Adalimumab and Adalimumab-Siglec Ligand conjugates were prepared as described in Example 4. The Adalimumab-Siglec ligand was conjugated by maleimide coupling to engineered cysteine residue L443C in the heavy chain constant region.
To evaluate the production of antibodies specific to adalimumab and/or adalimumab-Siglec Ligand conjugates, C57BL/6 mice were immunized through subcutaneous injection with adalimumab or CD22 ligand-conjugated adalimumab. On study day −1, animals were randomized into treatment groups based on body weight. On study day 0, animals were bled for baseline serum and then injected subcutaneously with adalimumab or the adalimumab-Siglec Ligand conjugate. The individual antigens were prepared by making antigen solution in sterile PBS pH 7.4. […]
ADA assays were performed on 96-well assay plates (Nunc Plates, Black 96-Well Immuno Plates, Thermo Scientific, Cat. No. 437111) coated with antigen, as follows. […] The excitation and emission settings for the QuantaBlu Fluorogenic Peroxide Substrates are 325 nm and 420 nm and the relative florescence units were measured using a SpectraMax plate reader. […] The titer cut point was determined by calculating the mean of the naïve, untreated mice and adding twice the standard deviation of the untreated samples.

[5] = Pharmacokinetic monitoring in mice after single subcutaneous administration; assay type: in vivo, mouse; settings: C57BL/6 mice, single subcutaneous dose 4 mg/kg
Method: Pharmacokinetic monitoring was also carried out in the same C57BL/6 mice following a single subcutaneous administration of adalimumab or the SigL-conjugated adalimumab antibodies. Animals were bled via the retro-orbital sinus throughout the study under inhaled isoflurane anesthesia at 1 h, 6 h, 1-day, 2-days, 6-days, 13-days, 20 days and 27-days post test-article administration. Whole blood was collected into Microvette K2EDTA capillary collection tube (Sarstedt Inc) and then further processed following manufactures instructions to collect plasma. Levels of adalimumab and SigL-conjugated adalimumab in plasma samples were measured using an AlphaLISA human IgG assay (Perkin Elmer) following manufacturer's protocols.

recombinant cynomolgus siglec-2/CD22 His-tag, sequence (A0A2K5WCZ6 entry or part of it): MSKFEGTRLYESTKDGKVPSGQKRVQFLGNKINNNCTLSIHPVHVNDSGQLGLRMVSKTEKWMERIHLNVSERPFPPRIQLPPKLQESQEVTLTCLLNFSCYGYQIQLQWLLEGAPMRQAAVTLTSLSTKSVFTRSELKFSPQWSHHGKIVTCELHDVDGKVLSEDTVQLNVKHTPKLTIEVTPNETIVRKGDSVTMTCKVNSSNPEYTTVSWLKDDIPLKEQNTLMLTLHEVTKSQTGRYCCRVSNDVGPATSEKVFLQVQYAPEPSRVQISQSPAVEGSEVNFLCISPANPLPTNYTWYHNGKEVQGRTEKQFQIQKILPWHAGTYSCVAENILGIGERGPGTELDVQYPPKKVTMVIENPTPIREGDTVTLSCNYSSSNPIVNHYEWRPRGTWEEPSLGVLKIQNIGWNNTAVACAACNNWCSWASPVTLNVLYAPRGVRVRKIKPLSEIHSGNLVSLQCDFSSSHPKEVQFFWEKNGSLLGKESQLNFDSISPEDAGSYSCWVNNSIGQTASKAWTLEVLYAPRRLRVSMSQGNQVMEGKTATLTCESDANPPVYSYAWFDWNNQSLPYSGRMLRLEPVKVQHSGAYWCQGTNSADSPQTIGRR

In the case of `CCCNC(=O)CCOCCOCCOCCOCCn1cc(-c2ccc(CC(=O)NC[C@@H](O)[C@@H](O)[C@@H]3O[C@@](OCCCCCCn4cc(COCCOC)nn4)(C(=O)O)C[C@H](O)[C@H]3NC(=O)CO)cc2)nn1` [Compound 55, (2R,4S,5R,6R)-6-((1R,2R)-1,2-dihydroxy-3-(2-(4-(1-(15-oxo-3,6,9,12-tetraoxa-16-azanonadecyl)-1H-1,2,3-triazol-4-yl)phenyl)acetamido)propyl)-4-hydroxy-5-(2-hydroxyacetamido)-2-((6-(4-((2-methoxyethoxy)methyl)-1H-1,2,3-triazol-1-yl)hexyl)oxy)tetrahydro-2H-pyran-2-carboxylic acid], the pKd [1] was greater than 6.00, the pKd [2] was 5.00 to 6.00 and the pKd [3] was 5.00 to 6.00.
For Adalimumab, the ADA titers [4] was “high ADA titers”, the clearance [5] was “significantly increased clearance” and the “time of falling below the limit of quantitation (BLOQ)” value [5] was 13 days.
